{"source": "patent US20240165069A1", "about": "“METHODS FOR TREATING DYSGEUSIA AND OTHER LINGERING SYMPTOMS ASSOCIATED WITH SEVERE ACUTE RESPIRATORY SYNDROME CORONAVIRUS 2 INFECTIONADN CORONAVIRUS DISEASE 2019” (Nocendra, Inc., priority 2021, published 2024)", "origin": "cited, not measured here", "system": "oral inflammation", "conditions": "Phase 1 trial"}
{"smiles": "CCCCC[C@@H](O)/C=C/c1ccccc1/C=C/[C@@H](O)[C@@H](O)CCCC(=O)O", "note": "[BLXA4, 9,12-benzo-lipoxin A4]", "values": [{"measurement": "safety profile", "setting": "50 subjects receiving drug, oral topical mouth rinse, versus placebo mouth rinse", "result": "indistinguishable from placebo mouth rinse in safety profile"}, {"measurement": "efficacy (reversal of inflammation)", "setting": "oral topical mouth rinse, not powered for efficacy, trends only", "result": "trends in the efficacy data suggested reversal of inflammation"}, {"measurement": "pro-resolving lipid mediator shift in serum", "setting": "topical BLXA4, serum of the subjects", "result": "elicited a pro-resolving lipid mediator shift in the serum"}]}
